From patent US8715653B2, “Modulation of Rhamm (CD168) for selective adipose tissue development” (The Regents of the University of California, priority 2006, dated 2014)
“Also recorded” adds a separate entry of the source.

Tests used:
[1] = system: Rh-/- fibroblasts; test: Disassembly of phalloidin-positive actin stress fibers in response to PDGF-BB; format: cell-based, mouse
Excerpt: (§1) Tissue sections were stained for collagen (Masson's trichrome), α-smooth muscle actin, vimentin and tenascin following manufacturer's recommendations. Staining was quantified after counter-staining with Harris Hematoxylin (EM SCIENCE) and mounting in Cytoseal 60 (Tullberg-Reinert, H., and Jundt, G. 1999. In situ measurement of collagen synthesis by human bone cells with a sirius red-based colorimetric microassay: effects of transforming growth factor beta2 and ascorbic acid 2-phosphate. Histochem Cell Biol 112:271-276). Immunofluorescence of phospho-ERK1,2 was done as previously published (49). For the detection of droplets of neutral lipids, paraformaldehyde-fixed cells were stained with BODIPY 493/503 (25 μg/ml) (Gocze, P. M., and Freeman, D. A. 1994. Factors underlying the variability of lipid droplet fluorescence in MA-10 Leydig tumor cells. Cytometry 17:151-158). Actin stress fibers were detected with Oregon-green phalloidin.
(§2) Cell migration and invasion require the rapid assembly/disassembly of the actin cytoskeleton. Since intracellular Rhamm forms associate with the actin cytoskeleton and are required for v-src-mediated actin cytoskeleton disassembly, we compared the ability of Rh-/- fibroblasts with Rh^FL-rescued fibroblasts to disassemble phalloidin-positive actin stress fibers in response to PDGF-BB. […]

[2] = system: Wt fibroblasts; test: as above; format: cell-based, mouse
Excerpt: as §1, §2

[3] = system: Rh-/- fibroblasts; test: Random motility of fibroblasts by time-lapse cinemicrography; format: cell-based, mouse
Protocol: (§3) Cell culture medium and culture conditions were described previously in Zhang, S., Chang, M. C., Zylka, D., Turley, S., Harrison, R., and Turley, E. A. 1998. The hyaluronan receptor RHAMM regulates extracellular-regulated kinase. J Biol Chem 273:11342-11348; and Tolg, C., et al. 2003. Genetic deletion of receptor for hyaluronan-mediated motility (Rhamm) attenuates the formation of aggressive fibromatosis (desmoid tumor). Oncogene 22:6873-6882. PDGF-BB (25 ng/ml), HA (500 ng/ml-1 mg/ml) or FCS (10%) were added to 24 hrs serum-starved, 50% sub-confluent fibroblasts on fibronectin (25 μg/ml)-coated dishes (Zhang, S., Chang, M. C., Zylka, D., Turley, S., Harrison, R., and Turley, E. A. 1998. The hyaluronan receptor RHAMM regulates extracellular-regulated kinase. J Biol Chem 273:11342-11348; Hall, C. L., Lange, L. A., Prober, D. A., Zhang, S., and Turley, E. A. 1996. pp60(c-src) is required for cell locomotion regulated by the hyaluronanreceptor RHAMM. Oncogene 13:2213-2224). […]
(§4) For experiments assessing the motogenic effects of HA and PDGF-BB, cells were plated onto fibronectin-coated tissue culture flasks at 50% sub-confluence overnight then serum-starved for 24 hrs. […] For quantifying the effect of FCS, fibroblasts were plated at 50% sub-confluence overnight onto tissue culture dishes that had been pre-coated with serum proteins. […]
(§5) Efficient repair of excisional wounds also depends upon motility speed in response to motogens present in the microenvironment (See Ridley, A. J., Schwartz, M. A., Burridge, K., Firtel, R. A., Ginsberg, M. H., Borisy, G., Parsons, J. T., and Horwitz, A. R. 2003. Cell migration: integrating signals from front to back. Science 302:1704-1709). The velocity of migration stimulated by HA (FIG. 6A) or FCS (FIGS. 9A, 9B) was assessed directly using time-lapse cinemicrography of cells cultured on fibronectin-coated 2D tissue culture surfaces (Hall, C. L., Lange, L. A., Prober, D. A., Zhang, S., and Turley, E. A. 1996. pp60(c-src) is required for cell locomotion regulated by the hyaluronanreceptor RHAMM. Oncogene 13:2213-2224). […]

[4] = system: Wt fibroblasts; test: as above; format: cell-based, mouse
Protocol: as §3, §4, §5

[5] = system: rat excisional skin wounds; test: Wound site (sub-cutaneous) adipogenesis in full thickness excisional wounds covered with collagen gel; format: in vivo; details: for adipogenesis within the wound site: rat excisional wounds, peptide in collagen gel, 14 days after wounding, histology
Protocol: FIG. 14. Effect of a hyaluronan binding peptide on wound site (sub-cutaneous) adipogenesis. A. Full thickness excisional wounds were placed on the flanks of male Fisher rats then these were covered with collagen gels (matrix) containing either no peptide (matrix), hyaluronan binding peptide (at 200, 20 and 2 ug/woundsite) or scrambled peptide (at 200 ug/woundsite). The wound sites were excised 14 days after wounding and processed for histology. Micrographs show Mason Trichrome stained tissue sections through the center of the wounds.
Wt and Rh-/- mice (3-18 month old) or male Sprague-Dawley rats were anaesthetized by Halothane inhalation. Two full thickness wounds were placed on denuded back skin using a 4 mm metal punch. In the case of the rat experiments, 200 ul of a vitrogen solution (type 1 collagen solution that gels at 35-37C) containing no peptide, 2-200 μg hyaluronan binding peptide or scrambled peptide was used to cover the wounds. Animals were housed in individual cages for the experimental period. Wounds were harvested at varying times using a 8 mm metal punch from similar locations on the backs of mice of the same gender and age. Harvested wounds were fixed overnight in 4% paraformaldehyde and paraffin embedded as described in Tolg, C., et al. 2003. Genetic deletion of receptor for hyaluronan-mediated motility (Rhamm) attenuates the formation of aggressive fibromatosis (desmoid tumor). Oncogene 22:6873-6882;. Numbered serial sections were cut perpendicular to the wound edge starting at the wound center. The first and last sections were stained with Masson's trichrome and non-stained sections were used for immunohistochemistry. To ensure that serial sections were cut starting at the wound center, wound samples were cut in half through the wound center prior to embedding

[6] = system: uninjured skin of male Fisher rats; test: Subcutaneous fat after injection in collagen solution under uninjured skin; format: in vivo; details: uninjured rat skin, injected in type 1 collagen solution, harvested 4, 7 and 14 days after injection
Protocol: 0.2 , 2 and 20 ug of hyaluronan binding peptide or scrambled peptide were mixed in 1 ml of type 1 collagen solution, (3 mg/m1) and 0.25 ml of the solution was injected under the skin on the flanks of 3 month old male Fisher rats. Hair at the site of injection was removed prior to injection using Nair for marking purposes. Injection sites were harvested by skin punches at 4, 7 and 14 days after injection.

[7] = listed as Hyaluronan binding peptides

Row | Molecule | effect on actin disassembly in response to PDGF-BB [1] | effect on actin disassembly in response to PDGF-BB [2] | effect on motility in response to PDGF-BB [3] | effect on motility in response to PDGF-BB ([4]; Wt fibroblasts, PDGF-BB) | effect on random motility in the presence of FCS ([4]; primary Wt fibroblasts, FCS) | concentrations that increase subcutaneous adipogenesis ([5]; rat excisional skin wounds) | adipogenesis within the wound site [5] | adipogenesis within the wound site [5, 7] | subcutaneous fat / accumulation of adipocytes at injection site [6] | subcutaneous fat / accumulation of adipocytes at injection site [6, 7]
1 | COc1cccc(-c2cc(=O)c3ccccc3o2)c1N [PD98059] | no effect | significantly inhibit | no effect | significantly inhibit | significantly reduce motility | – | – | – | – | –
2 | STMMRSHKTRSHHV (Hyaluronan binding peptide.) | – | – | – | – | – | 20-200 μg/wound site | filled with adipocytes | promoted adipogenesis; also recorded: increase subcutaneous adipogenesis | increases subcutaneous fat | promoted adipogenesis
